# Experimental data reported in US20130252959A1, “NITRIC OXIDE DONORS IN THERAPY OF NITRIC OXIDE DEFICIENCY-INDUCED DISTURBANCES OF CEREBRAL MICROCIRCULATION” (West-Falische Wilhelms-Universitat Munster, priority 2010, published 2013).
# Entries after “also recorded” stand apart in the source; their conditions may differ.
# What was measured:
# [1] = tested on: CVS; settings: cited from earlier work
# [2] = tested on: CVS and ischemia; settings: intrathecal, local or intraventricular application; humans or laboratory animal; cited from earlier work
# [3] = tested on: patients with SAH after aneurysmal rupture; assay: Spasm (CVS) related brain infarcts on CCT in SAH patients, Molsidomine in addition to standard therapy vs standard Nimodipine therapy; type: in vivo, human
# Protocol: CCT at the beginning and after treatment were analyzed independently by two experienced neuroradiologists and were scanned for development of delayed brain infarction. At least three months after discharge a modified NIH-SS and a modified Rankin Scale (mRS) for clinical follow up was assessed. 83 patients admitted to the Intensive Care Unit of the University Hospital of Munster, Germany, after spontaneous aneurysmal SAH were registered in an observational study. […] These patients were excluded from further evaluation. […] Out of 76 individuals 27 patients received Molsidomine i.v. in an individually up-titrated dosage with a target quantity of 3.5-10 mg/h dependent on systemic circulation reactions. […] Within 24 h after admission to the ICU patients were treated with coil embolization and/or clipping. […] Appearance of CVS. Male and female patients with an age of 18 years and written informed consent for the additional application of Molsidomine. Spontaneous SAH after aneurysmal rupture and a clinical stage of Hunt and Hess grade Ito V. Exclusion criteria for patients were: No detected CVS. […] CCT and DSA images were independently reported by two experienced neuroradiologists for infarction and vasospasm. CVS related infarcts were diagnosed if hypodense lesions could be detected 72 h or later after therapeutic intervention or operation in comparison to the 24 h control CCT scan and being accompanied by clinical deterioration due to CVS or positive Doppler ultrasound or CVS in DSA.
# [4] = tested on: patients with SAH after aneurysmal rupture; assay: Clinical outcome by modified NIH-SS and modified Rankin Scale at least three months after discharge; type: in vivo, human
# Text: The National Institutes of Health stroke scale (NIH-SS) is a graded neurological examination that assesses speech, language cognition, inattention, visual field abnormalities, motor and sensory impairments, and ataxia. The scale was developed for use in acute-stroke therapy trials and has since been widely used as a standard part of the assessment in clinical trials. This scale, along with many others, has been evaluated in its clinical usefulness in the assessment of the stroke patient. The NIH-SS permits a high-resolution evaluation of a patient's neurological status. To obtain the finding on the NIH-SS, various neurological aspects are investigated and assigned point scores. The total point score is a measure of the severity of the symptoms of stroke, the point score increasing with the severity of the symptoms. This rating scale is also suitable for monitoring the course of the symptoms after stroke and for quantifying the success of any treatment used. In general, it is possible to establish a correlation between the size of the infarct and the severity of the stroke as quantified by the stroke scale.
# Rating scales such as the NIH-SS or the modified Rankin scale are generally used for the quantitative evaluation of the severity of a cerebral disorder, whether acute or under treatment.
# CCT at the beginning and after treatment were analyzed independently by two experienced neuroradiologists and were scanned for development of delayed brain infarction. At least three months after discharge a modified NIH-SS and a modified Rankin Scale (mRS) for clinical follow up was assessed.
# 83 patients admitted to the Intensive Care Unit of the University Hospital of Munster, Germany, after spontaneous aneurysmal SAH were registered in an observational study. Seven patients died in the first 124 hours after admission, without detected CVS probably related to malignant brain edema and severity of initial SAH. These patients were excluded from further evaluation.
# Out of 76 individuals 27 patients received Molsidomine i.v. in an individually up-titrated dosage with a target quantity of 3.5-10 mg/h dependent on systemic circulation reactions. The remaining 49 patients received standard therapy.
# After a minimum of three months the modified NIH and modified Rankin status were determined in order to control clinical outcome of patients (NIH-SS and mRS).
# [5] = tested on: patients with SAH after aneurysmal rupture; assay: CVS detected by TCD (trans-cranial doppler); type: in vivo, human
# Text: TCD (trans-cranial doppler) is a diagnostic procedure using ultrasound waves to measure blood flow through the major blood vessels of the brain. In particular, the purpose of this test is to detect any narrowing or blockage in arteries located at the base of the brain that may decrease or stop the flow of blood to the brain and increase blood flow velocities according to narrowed vessel diameter. The test is most useful at detecting decreased blood flow through narrow areas inside blood vessels. TCDs are especially useful for monitoring blood flow in the brain of stroke patients who are affected by brain swelling and vasospasm (which are cerebral blood vessel spasms).
# The treatment with Molsidomine was applied if vasospasm was detected by TCD (mean flow […] resp. Lindegaard-Index >3) or DSA (narrowing of vessel diameter >50%).
# [6] = after oral administration; cited from earlier work
# [7] = tested on: patients with SAH after aneurysmal rupture; assay: Side effects and monitoring of blood pressure (MAP), ICP and blood under Molsidomine i.v.
# Protocol: In both groups blood pressure, intracranial pressure (ICP) and saturation measurement of blood oxygen were observed continuously. TCD was performed daily or on demand with investigation of the internal carotid artery (ACI), medial cerebral artery (MCA), anterior cerebral artery (ACA) and basilar artery (BA). For monitoring the clinical condition the GCS score (Glasgow Coma Score) was determined per hour
# The drug used contains Molsidomine, as supplied by Sanofi-Aventis, Germany, in ampullae with 2 mg/molsidomine (Corvaton®). The dosage of Molsidomine was adapted to the systemic blood pressure.
# The dosage was reduced if the MAP dropped below 65 mmHg despite infusion therapy (HES 6-10%) or a mild Arterenol® therapy (max dosage Arterenol® 0.1-0.2 μg/h, preferably at a dose of 0.1-0.3 mg/h or a dose of 0.1-0.2 μg/kg/min.). With increased need for Arterenol® the dosage of Molsidomine was reduced accordingly. Patients with cardiac low-output failure induced by preexistent cardiac failure, stop of perfusion during acute SAH itself or other reasons like sepsis received Molsidomine up-titrated in highest possible amount based on cardiac treatment or the treatment was interrupted for maximal 48 hours if Arterenol®-dosage escalated.
# The treatment with Molsidimine was continued (either i.v. or subsequent orally 4×8 mg ret.) until mean flows in TCD were normalized. The duration of Molsodomine application was at least 8 days according to inclusion criteria: Appearance or presence of detectable CVS.
# [8] = tested on: patients after brain hemorrhage, in particular SAH; settings: under Nimodipine therapy; cited from earlier work
# [9] = tested on: rat cerebral arterioles and venules; settings: He-Ne laser; cited from earlier work
# [10] = tested on: spontaneously hypertensive rats (SHRs); settings: cited from earlier work
# [11] = tested on: SAH group; settings: administered 48 hours after SAH was induced; cited from earlier work
# [12] = in vivo; cited from earlier work
# [13] = infusion 3 min after MCA occlusion
smiles,measurement,setting,value
COc1ccccc1Oc1c(NS(=O)(=O)c2ccc(C)cn2)nc(-c2ccnc(-c3nnn[nH]3)c2)nc1OCCO [Clazosentan],treatment of CVS,[1]; in vivo,highly efficiency for the treatment of CVS
same,long-term outcome or clinical benefit,[1]; multicenter study,failed to show any effect on long-term outcome or clinical benefit
"O=[N+]([O-])OCC(CO[N+](=O)[O-])O[N+](=O)[O-] [GTN, nitroglycerin]",effect on CVS and ischemia,[2],good prophylactic effect on CVS and ischemia
"CCOC(=O)[N-]c1c[n+](N2CCOCC2)no1 [Molsidomine, N-ethoxycarbonyl-3-morpholinosydnonimine]","Spasmus related infarcts, Infarction (number of patients)",[3]; Hunt & Hess grade III°,1
same,"Spasmus related infarcts, Infarction (number of patients)",[3]; Hunt & Hess grade II°,0
same,"Spasmus related infarcts, Infarction (number of patients)",[3]; Hunt & Hess grade IV°,1
same,"Spasmus related infarcts, Infarction (number of patients)",[3]; Hunt & Hess grade I°,1
same,"Spasmus related infarcts, Infarction (number of patients)",[3]; Hunt & Hess grade V°,0
same,patients who developed CVS associated infarcts (share of group),[3]; all Hunt & Hess grades,11.1%
same,patients who developed vasospasm associated brain infarctions / patients of the group,[3]; all Hunt & Hess grades,3/27
same,patients who developed CVS associated infarcts (number),"[3]; all Hunt & Hess grades, groups of 49 (Nimodipine) and 27 (Molsidomine)",3
same,Mean NIH >3 months (without deaths),[4]; Hunt & Hess grade III°,3.62
same,Mean mRS >3 months,[4]; Hunt & Hess grade III°,1.75
same,Mean NIH >3 months (without deaths),[4]; Hunt & Hess grade II°,1
same,Mean mRS >3 months,[4]; Hunt & Hess grade II°,1
same,Mean NIH >3 months (without deaths),[4]; Hunt & Hess grade IV°,3.8
same,Mean mRS >3 months,[4]; Hunt & Hess grade IV°,1.6
same,Mean NIH >3 months (without deaths),[4]; Hunt & Hess grade I°,0
same,Mean mRS >3 months,[4]; Hunt & Hess grade I°,1.75
same,Mean NIH >3 months (without deaths),[4]; Hunt & Hess grade V°,17
same,Mean mRS >3 months,[4]; Hunt & Hess grade V°,4
same,clinical condition and long term outcome in the follow up,[4]; SAH-survivors,impressive improvement of clinical condition and long term outcome
same,clinical deterioration,[4]; SAH-survivors,no clinical deterioration
same,patients partly in work process again or to be reintegrated soon,"[4]; follow up, normally approx. 5% return to work",5/27
same,effect in terminating CVS,[5]; judged from equal number of intra-arterial Nimodipine treatments per individual,weak effect
same,TCD-values (flow velocities),[5]; under Molsidomine treatment,trend in Transcranial Doppeler (TCD)-values towards normal velocities
same,absorption,[6],completely absorbed
same,adverse / side effects,"[7]; Molsidomine i.v., target 3.5-10 mg/h","No adverse side effects were observed; also recorded: did not show any relevant side effects; also recorded: no serious, untreatable (i.e. severe hypotension) adverse effects were observed"
same,"depression of MAP, maximum",[7]; even with higher dosage,≤ 10 mmHg
same,depression of blood pressure (systolic),[7]; even with higher dosage,10-20 mmHg
same,effect of fast reduction of dosage,[7]; regredient after increased Molsidomine levels,on/off phenomena or a rebound
same,Blood stains,[7]; under Molsidomine,normal
same,ICP,[7]; under Molsidomine,did not increase for short or longer periods
same,MAP kept,[7]; under Molsidomine,65-70 mmHg
"COCCOC(=O)C1=C(C)NC(C)=C(C(=O)OC(C)C)C1c1cccc([N+](=O)[O-])c1 (centres unmarked) [Nimodipine, 1,4-dihydro-2,6-dimethyl-4-(3-nitrophenyl)-3,5-pyridinedicarboxylic acid 2-methoxyethyl 1-methylethyl ester]",patients who developed vasospasm associated brain infarctions / patients of the group,[3]; all Hunt & Hess grades,25/49
same,Mean NIH >3 months (without deaths),[4]; Hunt & Hess grade III°,10.6
same,Mean mRS >3 months,[4]; Hunt & Hess grade III°,3.75
same,Mean NIH >3 months (without deaths),[4]; Hunt & Hess grade II°,0
same,Mean mRS >3 months,[4]; Hunt & Hess grade II°,3
same,Mean NIH >3 months (without deaths),[4]; Hunt & Hess grade IV°,12.3
same,Mean mRS >3 months,[4]; Hunt & Hess grade IV°,4.3
same,Mean NIH >3 months (without deaths),[4]; Hunt & Hess grade I°,0.5
same,Mean mRS >3 months,[4]; Hunt & Hess grade I°,1.6
same,Mean NIH >3 months (without deaths),[4]; Hunt & Hess grade V°,38 (2 × exitus)
same,Mean mRS >3 months,[4]; Hunt & Hess grade V°,5.7
same,associated DINDs,[8],27-37%
same,spasm-associated infarcts,[8],20-30%
same,spasm-associated infarcts detected by advanced CT-technique,[8],up to 50%
same,spasm-related mortality and high-grade morbidity,[8],30-40%
"N=c1c[n+](N2CCOCC2)[n-]o1 [SIN-1, 3-morpholinosydnonimine]",thrombus formation,[9],antithrombotic effect
same,recovery of cerebral blood flow (CBF),[10]; after MCA occlusion,enhanced the recovery of cerebral blood flow (CBF)
same,size of the infarct,[10]; after MCA occlusion,reduced the size of the infarct
same,infarct,[10]; [13],reduced the infarct
same,recovery of CBF and EEG amplitude,[10]; [13],enhanced the recovery of CBF and EEG amplitude
same,CBF,[11],increased CBF
same,plasma protein binding,[12],no relevant plasma protein binding
